ChEMBL document CHEMBL1681785, “Structure-activity relationships of flavonoids as inhibitors of breast cancer resistance protein (BCRP)” (Bioorg Med Chem, 2011)
pIC50: −log10 of the molar value. Activity calls are given as the source filed them. No cut-off for these calls is given here.

Tests used:
[1] = biological target: Multidrug resistance-associated protein 1 (Homo sapiens, UniProt P33527); test: Inhibition of MRP1 expressed in human 2008 cells assessed as calcein AM accumulation by cell based assay
[2] = test system: MCF7; test: Cytotoxicity against human MCF7 cells assessed as intracellular ATP level at 10 uM after 72 hrs by luminometry; type: functional, cell-based
[3] = biological target: T1, Broad substrate specificity ATP-binding cassette transporter ABCG2 (Homo sapiens, UniProt Q9UNQ0); test: Inhibition of BCRP expressed in MCF-7 MX cells using Hoechst 33342 staining; type: cell-based, MCF7; conditions: read-out: IC50
T1 sequence (Q9UNQ0 whole entry): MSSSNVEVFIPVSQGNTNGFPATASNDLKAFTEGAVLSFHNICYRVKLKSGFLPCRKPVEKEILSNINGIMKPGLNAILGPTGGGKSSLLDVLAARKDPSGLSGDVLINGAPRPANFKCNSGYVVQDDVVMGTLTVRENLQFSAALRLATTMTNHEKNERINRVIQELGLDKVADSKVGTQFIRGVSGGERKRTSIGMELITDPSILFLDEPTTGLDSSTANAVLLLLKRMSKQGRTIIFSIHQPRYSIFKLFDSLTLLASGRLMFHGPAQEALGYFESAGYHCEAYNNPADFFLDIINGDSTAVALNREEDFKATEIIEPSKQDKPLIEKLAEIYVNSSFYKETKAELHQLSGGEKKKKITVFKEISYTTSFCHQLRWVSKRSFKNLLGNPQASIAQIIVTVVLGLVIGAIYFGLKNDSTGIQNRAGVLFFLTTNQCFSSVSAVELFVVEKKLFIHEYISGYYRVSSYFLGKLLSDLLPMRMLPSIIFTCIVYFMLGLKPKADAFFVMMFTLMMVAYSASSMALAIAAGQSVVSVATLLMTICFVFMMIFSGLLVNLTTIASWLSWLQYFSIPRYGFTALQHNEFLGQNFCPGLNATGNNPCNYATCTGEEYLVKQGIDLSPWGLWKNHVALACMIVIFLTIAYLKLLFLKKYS

[4] = biological target: T1, Broad substrate specificity ATP-binding cassette transporter ABCG2; test: Inhibition of BCRP expressed in MDCK cells using Hoechst 33342 staining; type: cell-based; conditions: read-out: IC50
[5] = test system: A2780 ADR; test: Inhibition of P-gp expressed in A2780adr cells at 10 uM by calcein AM accumulation assay relative to verapamil; type: cell-based
[6] = biological target: ATP-dependent translocase ABCB1 (Homo sapiens, UniProt P08183); test: Inhibition of MDR1 expressed in MDCK cells using rhodamine 123 staining by flow cytometry; type: cell-based
[7] = Inhibition of P-gp expressed in A2780adr cells by calcein AM accumulation assay; type: cell-based; conditions: A2780 ADR
[8] = test system: A2780; test: Cytotoxicity against human A2780 cells assessed as intracellular ATP level at 10 uM after 72 hrs by luminometry; type: functional, cell-based

Multidrug resistance-associated protein 1, sequence (P33527 whole entry): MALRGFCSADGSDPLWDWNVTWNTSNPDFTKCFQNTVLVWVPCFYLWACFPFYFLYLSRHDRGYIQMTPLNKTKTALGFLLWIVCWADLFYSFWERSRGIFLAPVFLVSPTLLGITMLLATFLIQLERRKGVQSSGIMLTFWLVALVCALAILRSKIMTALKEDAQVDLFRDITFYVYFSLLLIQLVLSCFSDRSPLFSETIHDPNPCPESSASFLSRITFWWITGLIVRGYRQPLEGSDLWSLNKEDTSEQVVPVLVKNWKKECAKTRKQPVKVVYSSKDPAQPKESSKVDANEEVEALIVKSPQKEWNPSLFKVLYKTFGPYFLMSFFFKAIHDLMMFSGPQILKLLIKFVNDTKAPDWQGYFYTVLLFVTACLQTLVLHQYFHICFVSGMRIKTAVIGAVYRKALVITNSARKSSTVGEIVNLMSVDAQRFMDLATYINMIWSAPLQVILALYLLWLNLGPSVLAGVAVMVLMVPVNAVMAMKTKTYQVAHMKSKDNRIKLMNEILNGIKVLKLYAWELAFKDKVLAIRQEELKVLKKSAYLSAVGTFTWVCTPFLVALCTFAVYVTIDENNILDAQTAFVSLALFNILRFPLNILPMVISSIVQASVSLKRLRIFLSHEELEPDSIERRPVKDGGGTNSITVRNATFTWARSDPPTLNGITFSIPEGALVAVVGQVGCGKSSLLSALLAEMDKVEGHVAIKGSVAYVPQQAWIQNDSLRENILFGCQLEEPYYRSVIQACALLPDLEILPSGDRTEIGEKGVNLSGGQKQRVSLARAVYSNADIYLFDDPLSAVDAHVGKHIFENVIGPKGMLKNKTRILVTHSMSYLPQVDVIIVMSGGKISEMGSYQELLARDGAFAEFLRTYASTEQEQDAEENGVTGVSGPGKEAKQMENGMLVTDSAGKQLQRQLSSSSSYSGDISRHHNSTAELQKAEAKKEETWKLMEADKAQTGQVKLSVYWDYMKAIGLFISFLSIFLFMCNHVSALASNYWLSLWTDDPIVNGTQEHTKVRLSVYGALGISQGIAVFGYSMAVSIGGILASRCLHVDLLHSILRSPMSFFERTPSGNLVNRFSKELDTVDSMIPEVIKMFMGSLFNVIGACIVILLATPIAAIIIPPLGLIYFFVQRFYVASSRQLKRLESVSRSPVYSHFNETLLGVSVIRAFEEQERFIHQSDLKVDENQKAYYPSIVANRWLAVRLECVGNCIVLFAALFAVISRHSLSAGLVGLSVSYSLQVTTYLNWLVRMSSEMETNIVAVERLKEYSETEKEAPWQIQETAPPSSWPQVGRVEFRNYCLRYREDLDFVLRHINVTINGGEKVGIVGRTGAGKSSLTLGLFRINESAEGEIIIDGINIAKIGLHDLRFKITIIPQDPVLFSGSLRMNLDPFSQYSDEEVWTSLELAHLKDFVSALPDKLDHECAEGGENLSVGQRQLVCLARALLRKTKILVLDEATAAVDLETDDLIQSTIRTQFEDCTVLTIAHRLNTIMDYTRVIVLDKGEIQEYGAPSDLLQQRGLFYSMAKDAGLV
ATP-dependent translocase ABCB1, sequence (P08183 whole entry): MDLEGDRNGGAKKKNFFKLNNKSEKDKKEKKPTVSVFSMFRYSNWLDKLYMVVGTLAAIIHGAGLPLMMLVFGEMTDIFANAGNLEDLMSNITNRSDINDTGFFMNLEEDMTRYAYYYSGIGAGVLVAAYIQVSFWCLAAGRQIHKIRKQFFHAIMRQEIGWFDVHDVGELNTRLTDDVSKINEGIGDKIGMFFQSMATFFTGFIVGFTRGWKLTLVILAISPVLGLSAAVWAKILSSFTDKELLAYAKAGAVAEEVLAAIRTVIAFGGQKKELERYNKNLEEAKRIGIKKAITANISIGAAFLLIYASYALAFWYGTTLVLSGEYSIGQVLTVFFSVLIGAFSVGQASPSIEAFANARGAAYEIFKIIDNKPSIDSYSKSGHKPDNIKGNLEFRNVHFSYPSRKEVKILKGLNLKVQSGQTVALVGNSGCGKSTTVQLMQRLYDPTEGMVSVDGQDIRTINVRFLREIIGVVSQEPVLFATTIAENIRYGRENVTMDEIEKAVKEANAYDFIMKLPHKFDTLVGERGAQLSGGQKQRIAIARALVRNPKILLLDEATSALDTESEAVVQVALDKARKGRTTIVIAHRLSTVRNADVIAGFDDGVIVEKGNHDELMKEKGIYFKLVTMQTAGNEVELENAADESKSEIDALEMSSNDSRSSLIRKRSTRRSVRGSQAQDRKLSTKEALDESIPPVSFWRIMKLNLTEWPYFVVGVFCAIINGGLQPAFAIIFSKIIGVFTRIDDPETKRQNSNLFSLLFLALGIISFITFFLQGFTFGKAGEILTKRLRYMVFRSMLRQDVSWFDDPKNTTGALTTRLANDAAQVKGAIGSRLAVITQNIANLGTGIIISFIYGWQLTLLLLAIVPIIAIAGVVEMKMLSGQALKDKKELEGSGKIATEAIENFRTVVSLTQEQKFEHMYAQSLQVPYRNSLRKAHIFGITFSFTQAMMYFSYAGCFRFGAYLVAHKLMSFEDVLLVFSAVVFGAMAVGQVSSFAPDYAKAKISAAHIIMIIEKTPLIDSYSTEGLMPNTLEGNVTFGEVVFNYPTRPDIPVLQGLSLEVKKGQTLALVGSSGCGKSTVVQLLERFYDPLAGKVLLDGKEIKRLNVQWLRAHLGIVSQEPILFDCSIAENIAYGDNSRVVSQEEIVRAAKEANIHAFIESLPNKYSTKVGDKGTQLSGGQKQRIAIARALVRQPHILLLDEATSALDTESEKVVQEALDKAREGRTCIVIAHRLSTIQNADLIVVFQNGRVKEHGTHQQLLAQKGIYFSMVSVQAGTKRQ

pIC50 [1]	pIC50 [3]	pIC50 [4]	pIC50 [6]	pIC50 [7]	Structure (SMILES)	Activity [2]	inhibition [5]	Activity [8]
4.30	6.17	6.34	4.89	5.03	COc1cc(O)c2c(=O)c(OC)c(-c3ccc(OC)c(O)c3)oc2c1 [AYANIN]	inactive	inactive	inactive
4.90					COc1ccc2c(c1)c(CC(=O)O)c(C)n2C(=O)c1ccc(Cl)cc1 [INDOMETHACIN]			
4.30	6.05	6.41	4.80	4.92	COc1cc(O)c2c(=O)c(OC)c(-c3ccc(OC)c(OC)c3)oc2c1 [RETUSIN]	inactive	inactive	inactive
